Measured values taken from patent EP4667464A1 (Cyrus Therapeutics Inc., priority 2023, dated 2024).
Read-outs that look alike come from different tables or passages of the source.

Tests used:
SOS1 = target: T1, SOS1 (Homo sapiens, UniProt Q07889); test: SOS-catalyzed nucleotide exchange assay (HTRF, SOS1-mediated GTP loading of KRAS G12D); assay type: biochemical
T1 construct: HIS-SOS1cat (160 nM; Cytoskeleton, US); His (N); purchased Cytoskeleton
T1 sequence (Q07889 564-1049 limits assumed): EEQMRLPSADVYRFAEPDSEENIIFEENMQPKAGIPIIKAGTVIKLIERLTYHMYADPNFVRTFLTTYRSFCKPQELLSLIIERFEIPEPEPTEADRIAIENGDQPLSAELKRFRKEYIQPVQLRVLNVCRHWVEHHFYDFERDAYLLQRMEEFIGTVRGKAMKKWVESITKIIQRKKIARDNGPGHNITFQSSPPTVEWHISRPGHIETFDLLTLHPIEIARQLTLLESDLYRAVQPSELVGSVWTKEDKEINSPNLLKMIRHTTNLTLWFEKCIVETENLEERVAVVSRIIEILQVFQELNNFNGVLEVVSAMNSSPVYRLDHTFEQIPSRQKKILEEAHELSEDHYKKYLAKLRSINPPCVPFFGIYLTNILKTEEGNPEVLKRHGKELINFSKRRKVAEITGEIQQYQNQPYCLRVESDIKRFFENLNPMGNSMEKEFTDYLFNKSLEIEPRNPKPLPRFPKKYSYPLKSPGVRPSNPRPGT

KRAS G12C::SOS1 = target: T2, KRAS G12C::SOS1 (Homo sapiens, UniProt Q07889); test: KRAS G12C::SOS1 protein-protein interaction (PPI) inhibition assay (HTRF); assay type: binding
T2 construct: purchased CISBIO 64KRASG12PEH
T2 sequence (Q07889 1-1333): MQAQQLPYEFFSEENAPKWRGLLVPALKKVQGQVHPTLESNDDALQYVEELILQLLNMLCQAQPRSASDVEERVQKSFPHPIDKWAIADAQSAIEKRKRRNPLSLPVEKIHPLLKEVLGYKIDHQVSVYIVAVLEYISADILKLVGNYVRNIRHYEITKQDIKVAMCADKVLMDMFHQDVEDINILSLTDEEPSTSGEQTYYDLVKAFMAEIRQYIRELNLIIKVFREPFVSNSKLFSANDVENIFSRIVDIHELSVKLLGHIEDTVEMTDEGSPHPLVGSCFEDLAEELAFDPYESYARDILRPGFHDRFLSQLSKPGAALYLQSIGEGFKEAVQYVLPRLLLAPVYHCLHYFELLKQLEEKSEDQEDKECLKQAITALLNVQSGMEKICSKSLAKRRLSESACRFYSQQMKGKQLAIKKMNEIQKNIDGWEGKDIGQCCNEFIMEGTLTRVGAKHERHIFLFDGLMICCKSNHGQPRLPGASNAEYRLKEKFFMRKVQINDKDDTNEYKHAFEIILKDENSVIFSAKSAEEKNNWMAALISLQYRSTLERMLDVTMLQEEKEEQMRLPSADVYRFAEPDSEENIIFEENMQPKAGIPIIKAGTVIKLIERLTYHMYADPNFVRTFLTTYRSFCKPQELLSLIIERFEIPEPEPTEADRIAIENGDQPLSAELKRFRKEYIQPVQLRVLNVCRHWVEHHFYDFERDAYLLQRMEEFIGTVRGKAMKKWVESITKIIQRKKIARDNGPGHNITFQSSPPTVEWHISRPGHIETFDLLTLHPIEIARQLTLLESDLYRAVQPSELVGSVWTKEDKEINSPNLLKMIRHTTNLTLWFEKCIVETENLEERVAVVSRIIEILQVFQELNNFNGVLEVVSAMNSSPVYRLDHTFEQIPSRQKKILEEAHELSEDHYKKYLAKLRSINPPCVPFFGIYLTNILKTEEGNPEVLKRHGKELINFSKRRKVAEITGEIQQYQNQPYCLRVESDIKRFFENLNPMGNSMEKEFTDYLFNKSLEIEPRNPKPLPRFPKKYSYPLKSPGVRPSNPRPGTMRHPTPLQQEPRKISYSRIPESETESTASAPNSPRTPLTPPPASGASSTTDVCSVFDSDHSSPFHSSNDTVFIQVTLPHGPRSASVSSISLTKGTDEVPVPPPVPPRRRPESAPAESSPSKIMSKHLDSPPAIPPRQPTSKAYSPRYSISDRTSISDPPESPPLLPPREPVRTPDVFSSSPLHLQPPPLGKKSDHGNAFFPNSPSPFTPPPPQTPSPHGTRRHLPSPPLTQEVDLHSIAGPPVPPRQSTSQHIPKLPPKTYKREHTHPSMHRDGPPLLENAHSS
How it was run: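 Compounds, at eight 3-fold dilutions from 3 µM, were mixed with GTP-loaded Tag1-KRAS G12C, Tag2-SOS1 and a terbium-cryptate donor plus XL665 acceptor antibody pair. After 2 h at room temperature, time-resolved FRET reported the KRAS–SOS1 interaction.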

[1] = system: lung cancer cell line NCI-H358 having the KRAS G12C variant; test: Cancer cell growth inhibition, 3D spheroids (CellTiter-Glo 3D); assay type: cell-based; details: read-out: H358 cell viability
How it was run: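 NCI-H358 (KRAS G12C) spheroids lysed with CellTiter-Glo 3D for 30 min with shaking after 10 min at room temperature. Growth in compound-treated wells expressed relative to untreated wells set to 100%.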

[2] = system: lung cancer cell line H358 having the KRAS G12S variant; test: SynergyScreen combination efficacy (ATPlite 1Step cell viability); details: for Synergy 2: difference between Synergy 1 and cell death rate of Ex. 1-2 alone
Description: In order to measure cell viability, each well was treated with 24 µL of ATPlite 1Step™ (PerkinElmer) solution, then mixed for 2 minutes, and reacted by blocking light for 5 minutes, and then the luminescence signal was measured using an Envision multilabel reader (PerkinElmer).

[3] = GST-KRAS G12D, HIS-SOS1cat, compound 128 pM to 10 µM, read-out: SOS-catalyzed nucleotide exchange assay
[4] = 8 concentrations from 3 µM, three replicates, read-out: KRAS G12C::SOS1 PPI
[5] = Homo sapiens, NCI-H358, 120 h, 3D spheroids, 0.002-10 µM, 5 days
[6] = 3D spheroids, 0.002-10 µM, 5 days

IC50 (SOS1; [3])	IC50 (KRAS G12C::SOS1; [4])	IC50 [1, 5]	Compound	further results
0.05 to 0.15 µM	0.05 to 0.15 µM	< 1 µM	C[C@@H](NC(=O)c1ccc(=O)n(-c2cncc(-c3cnnn3C)c2)n1)c1cccc(C(F)(F)F)c1F [Example 1-2, N-[(1R)-1-[2-fluoro-3-(trifluoromethyl)phenyl]ethyl]-1-[5-(3-methyltriazol-4-yl)-3-pyridyl]-6-oxo-pyridazine-3-carboxamide]	EFFECT20 (concentration that induces 20% cell death), applied as final treatment concentration ([2]; culture time 72 h): 1854 nM; EFFECT20 (concentration that induces 20% cell death), applied as final treatment concentration ([2]; culture time 120 h): 652 nM
–	–	–	O=c1cc(-c2ccc(O)c(O)c2O)oc2ccccc12 [Example 2-D08, 2-D08]	Synergy 2 ([2]; Ex. 1-2 log M -6.3, culture time 120 h): + (less than 10%)
< 0.05 µM	< 0.05 µM	< 1 µM	C[C@@H](NC(=O)c1ccc(=O)n(-c2cc(-c3cnnn3C)cnc2F)n1)c1cccc(C(F)(F)F)c1F [Example 6-7, N-{(R)-1-[2-fluoro-3-(trifluoromethyl)phenyl]ethyl}-1-[2-fluoro-5-(1-methyl-1H-1,2,3-triazol-5-yl)-3-pyridyl]-6-oxo-1,6-dihydropyridazine-3-carboxamide]	–
–	–	–	C[C@@H](NC(=O)c1ccc(=O)n(-c2cnc(F)c(-c3cnnn3C)c2)n1)c1cccc(C(F)(F)F)c1F [Example 6]	IC50 (SOS1): 0.05 to 0.15 µM; IC50 (KRAS G12C::SOS1): 0.05 to 0.15 µM; IC50 ([1]; Homo sapiens, NCI-H358, 120 h): < 1 µM
< 0.05 µM	< 0.05 µM	< 1 µM	C[C@@H](NC(=O)c1cc(C2CC2)c(=O)n(-c2cncc(-c3cnnn3C)c2)c1)c1cccc(C(F)(F)F)c1F [Example 7, (R)-3-cyclopropyl-N-(1-(2-fluoro-3-(trifluoromethyl)phenyl)ethyl)-5'-(1-methyl-1H-1,2,3-triazol-5-yl)-2-oxo-2H-[1,3'-bipyridine]-5-carboxamide]	–
0.05 to 0.15 µM	0.05 to 0.15 µM	< 1 µM	[2H]C([2H])([2H])c1cc(C(=O)N[C@H](C)c2cccc(C(F)(F)F)c2F)nn(-c2cncc(-c3cnnn3C)c2)c1=O [Example 7-1, N-{(R)-1-[2-fluoro-3-(trifluoromethyl)phenyl]ethyl}-5-[methyl-trideuterio]-1-[5-(1-methyl-1H-1,2,3-triazol-5-yl)-3-pyridyl]-6-oxo-1,6-dihydropyridazine-3-carboxamide]	–
0.05 to 0.15 µM	< 0.05 µM	< 1 µM	[2H]C([2H])([2H])c1cc(C(=O)N[C@H](C)c2cccc(C(F)F)c2F)nn(-c2cncc(-c3cnnn3C)c2)c1=O [Example 7-2, N-{(R)-1-[3-(difluoromethyl)-2-fluorophenyl]ethyl}-5-[methyl-trideuterio]-1-[5-(1-methyl-1H-1,2,3-triazol-5-yl)-3-pyridyl]-6-oxo-1,6-dihydropyridazine-3-carboxamide]	–
0.05 to 0.15 µM	< 0.05 µM	< 1 µM	Cc1cc(C(=O)N[C@H](C)c2cccc(C(F)(F)F)c2F)nn(-c2cncc(-c3cnnn3C)c2)c1=O [Example 7-3, N-{ (R)-1-[2-fluoro-3-(trifluoromethyl)phenyl]ethyl}-5-methyl-1-[5-(1-methyl-1H-1,2,3-triazol-5-yl)-3-pyridyl]-6-oxo-1,6-dihydropyridazine-3-carboxamide]	–
< 0.05 µM	< 0.05 µM	< 1 µM	C[C@@H](NC(=O)c1cc(C2CC2)c(=O)n(-c2cncc(-c3cnnn3C)c2)n1)c1cccc(C(F)(F)F)c1F [Example 7-4, N-{(R)-1-[2-fluoro-3-(trifluoromethyl)phenyl]ethyl}-5-cyclopropyl-1-[5-(1-methyl-1H-1,2,3-triazol-5-yl)-3-pyridyl]-6-oxo-1,6-dihydropyridazine-3-carboxamide]	–
< 0.05 µM	< 0.05 µM	< 1 µM	C[C@@H](NC(=O)c1cc(C2=CCCCC2)c(=O)n(-c2cncc(-c3cnnn3C)c2)c1)c1cccc(C(F)(F)F)c1F [Example 15, N-{(R)-1-[2-fluoro-3-(trifluoromethyl)phenyl]ethyl}-5-(1-cyclohexen-1-yl)-5'-(1-methyl-1H-1,2,3-triazol-5-yl)-6-oxo-1H-[1,3'-bipyridyl]-3-carboxamide]	–
–	–	–	CNC(=O)c1cc(Oc2ccc(NC(=O)Nc3ccc(Cl)c(C(F)(F)F)c3)cc2)ccn1 [Sorafenib, sorafenib]	Synergy 2 ([2]; Ex. 1-2 log M -5.9, culture time 72 h): + (less than 10%)
–	–	–	C[C@]12C=CC(=O)C=C1CC[C@@H]1[C@@H]2[C@@H](O)C[C@@]2(C)[C@H]1CC[C@]2(O)C(=O)CO [prednisolone]	Concentration (log M) Anticancer agent ([2]; words printed in place of a concentration, culture time 72 h, with Ex. 1-2 log M -5.9): No Concentration -dependent change
0.05 to 0.15 µM	0.05 to 0.15 µM	–	N-[(1R)-1-[3-(1,1-difluoro-2-hydroxy-ethyl)-2-fluoro-phenyl]ethyl]-1-[5-(2-methylpyrazol-3-yl)-3-pyridyl]-6-oxo-pyridazine-3-carboxamide [Example 1-16]	IC50 [1, 6]: < 1 µM
< 0.05 µM	< 0.05 µM	–	N-[(1R)-1-[5-amino-3-(difluoromethyl)-2-fluoro-phenyl]ethyl]-5-methyl-1-[5-(3-methyltriazol-4-yl)-3-pyridyl]-6-oxo-pyridazine-3-carboxamide [Example 2-3]	IC50 [1, 6]: < 1 µM

Compound	IC50 (SOS1; [3])	IC50 (KRAS G12C::SOS1; [4])	IC50 [1, 5]	further results
(R)-3-bromo-N-(1-(2-fluoro-3-(trifluoromethyl)phenyl)ethyl)-5'-(1-methyl-1H-1,2,3-triazol-5-yl)-2-oxo-2H-[1,3'-bipyridine]-5-carboxamide [Example 1-22]	> 0.15 µM	0.05 to 0.15 µM	–	IC50 [1, 6]: < 1 µM
